# What was measured:
# Experiment in all cases: relative viability (nuclei count vs DMSO), 5 days (fraction); higher = more cells survive
# [1] = compound: C1CNCCC1C2=CC(=NN2)C3=CC=NC=C3 + N=C(N)NC(=N)NCCc1ccccc1 [Phenformin] (partner 250 µM)
# Summary of the method: (§1)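 Lung cancer cell lines were pin-tool dosed in 1536-well plates on the day after seeding, with either a lone drug or a fixed anchor-drug dose plus five library-drug doses (not always all listed) in √10 steps. Nuclei were counted on 4× images after 5 days. Relative viability is the ratio of treated-well to vehicle-well nuclei counts, with each value a median of duplicate plates.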
# [2] = compound: O[C@H]1CC[C@H](Nc2ncc3nc(Nc4c(F)cc(F)cc4F)n([C@H]4CCOC4)c3n2)CC1 [Tanzisertib] + Cc1cc(Nc2cc(N3CCN(C)CC3)nc(Sc3ccc(NC(=O)C4CC4)cc3)n2)n[nH]1 [Tozasertib] (partner 0.1 µM)
# Summary of the method: as §1
# [3] = compound: C[C@@H](N)c1ccc(C(=O)Nc2ccnc3[nH]ccc23)cc1 + C[C@@H](Oc1cc(-c2cnn(C3CCNCC3)c2)cnc1N)c1c(Cl)ccc(F)c1Cl [Crizotinib] (partner 1 µM)
# Summary of the method: as §1
# [4] = compound: C[C@@H](N)c1ccc(C(=O)Nc2ccnc3[nH]ccc23)cc1 + N=C(N)NC(=N)NCCc1ccccc1 [Phenformin] (partner 250 µM)
# Summary of the method: as §1
Cell Line,relative viability ([1]; first compound 0.08 µM),relative viability ([1]; first compound 0.8 µM),relative viability ([1]; first compound 2.53 µM),relative viability ([1]; first compound 8 µM),relative viability ([2]; first compound 0.08 µM),relative viability ([2]; first compound 0.253 µM),relative viability ([2]; first compound 0.8 µM),relative viability ([2]; first compound 2.53 µM),relative viability ([2]; first compound 8 µM),relative viability ([3]; first compound 0.04 µM),relative viability ([3]; first compound 0.1265 µM),relative viability ([3]; first compound 0.4 µM),relative viability ([3]; first compound 1.265 µM),relative viability ([3]; first compound 4 µM),relative viability ([4]; first compound 0.04 µM),relative viability ([4]; first compound 0.1265 µM),relative viability ([4]; first compound 0.4 µM),relative viability ([4]; first compound 1.265 µM),relative viability ([4]; first compound 4 µM)
NCI-H358,0.199,0.361,0.339,0.28,0.119,0.0917,0.106,0.107,0.117,0.744,0.543,0.676,0.513,0.633,0.374,0.358,0.314,0.32,0.246
NCI-H1734,0.348,0.421,0.36,0.401,0.267,0.282,0.254,0.251,0.236,0.669,0.719,0.653,,0.575,0.355,0.383,0.431,0.282,0.397
EPLC-272H,0.317,0.299,0.35,0.396,0.308,0.183,0.326,0.303,0.171,0.922,0.891,0.957,,0.61,0.365,0.44,0.279,0.198,0.241
NCI-H2126,0.483,0.51,0.556,0.577,0.91,0.872,0.85,0.813,0.859,1.03,1.02,1.03,1.02,1.04,0.588,0.558,0.592,0.505,0.502
